Data from patent US9645154B2, “Method for detecting cancer cell” (ARKRAY, Inc., priority 2010, dated 2017).

How the values were obtained:
[1] = tested on: human fibrosarcoma cell line HT1080; assay: Labeled sugar incorporation, fluorescence microscopy image analysis (positive rate); type: cell-based; conditions: 10 mM, 5 min, 23° C.
Text: In accordance with the conventional method, cultured human fibrosarcoma cell line HT1080 (DS Pharma Biomedical Co., Ltd.) was harvested with trypsin (Invitrogen). The human gastric cancer cell line SNU-1 (ATCC), which is a suspension cell line, was directly harvested without any trypsin treatment. The cell suspension of the harvested cancer cells was centrifuged, and the supernatant was removed. The cells were resuspended with Dulbecco's PBS (−) (Nissui Pharmaceutical Co., Ltd.) and centrifuged, and the supernatant was removed again.
(§1) When performing the hemolyzing treatment, the blood cell fraction collected as described above was hemolyzed using ammonium chloride (STEMCELL Technologies) according to the manufacture's manuals.
(§2) The number of the cells was counted for each cell line using a hemacytometer in accordance with the conventional method, and then 10^5 to 10^6 cells per sample (cell suspension) was aliquoted. Each of the sample was centrifuged to remove the supernatant. Subsequently, 2-NBDG (Wako Pure Chemical Industries, Ltd.; at the final concentration given in Table 3 or 4) dissolved in Dulbecco's PBS (−) was added thereto, and the cells were suspended well. After the reaction, Dulbecco's PBS (−) was added to the mixture, and the resultant was centrifuged to remove the supernatant. The cells were resuspended with Dulbecco's PBS (−) and centrifuged, and the supernatant was removed again. The steps of resuspending cells with Dulbecco's PBS (−), centrifuging and removing the supernatant were then repeated 2 to 3 times, thereby washing the cells thoroughly. The cells were resuspended with Dulbecco's PBS (−), the concentration thereof was adjusted, and then added dropwise to a 384-well plate. The plate was centrifuged to spin down the cells. The image was captured with a fluorescence microscope (Nikon Corp.) using B-2A filter combination (Nikon Corp.). The B-2A set covers the following wavelengths. EX (excitation wavelength): 475±15 nm, DM: 505 nm or longer, BA (fluorescence wavelength) 520 nm or longer.
(§3) The acquired images were analyzed using an image analysis software NIS-ELEMENTS (trade name, Nikon Corp.) to evaluate the fluorescence intensity of the cell. […]
In a manner similar to Example 2, each of human breast adenocarcinoma cells (cell line name: MCF-7; DS Pharma Biomedical Co., Ltd.), human colon adenocarcinoma cells (cell line name: SW620; DS Pharma Biomedical Co., Ltd.), human prostate cancer cells (cell line name: PC3; DS Pharma Biomedical Co., Ltd.), human alveolar epithelial cancer cells (cell line name: NCI-H358; DS Pharma Biomedical Co., Ltd.), human gastric cancer cells (cell line name: SNU-1; ATCC) and human fibrosarcoma cells (cell line name: HT1080; DS Pharma Biomedical Co., Ltd.) was detected with the labeled sugar (2-NBDG).

Blood cells [2] = assay: Labeled sugar incorporation, fluorescence microscopy image analysis (false-positive/negative rate); type: cell-based, human; conditions: 10 mM, 5 min, 23° C.
Text: (§4) Blood was collected from a human subject using a vacuum blood collection tube (with EDTA•2K). Blood cells were separated using HetaSep (STEMCELL Technologies) in accordance with manufacturer's instructions.
as §1, §2, §3

[3] = tested on: human gastric cancer cell line SNU-1; assay: Labeled amino acid incorporation, fluorescence microscopy image analysis (positive rate); type: cell-based; conditions: 1 mM; hemolyzed, 30 min, 37° C.
Text: In accordance with the conventional method, cultured human prostate cancer cell line PC3 (DS Pharma Biomedical Co., Ltd.) was harvested with trypsin (Invitrogen). The human gastric cancer cell line SNU-1 (ATCC), which is a suspension cell line, was directly harvested without any trypsin treatment. The cell suspension of the harvested cancer cells was centrifuged, and the supernatant was removed. The cells were resuspended with Dulbecco's PBS (−) (Nissui Pharmaceutical Co., Ltd.) and centrifuged, and the supernatant was removed again.
The number of the cells was counted for each cell line using a hemacytometer in accordance with the conventional method, and then 10^5 to 10^6 cells per sample (cell suspension) was aliquoted. The sample was centrifuged to remove the supernatant. […] The image was captured with a fluorescence microscope (Nikon Corp.) using B-2A filter set (Nikon Corp.). […] The acquired images were analyzed using an image analysis software NIS-ELEMENTS (trade name, Nikon Corp.) to evaluate the fluorescence intensity of the cell. […]
(§5) Further, the fluorescence intensity of the cells was evaluated in a manner similar to Example 2, except the fluorescence filter covering the wavelengths of EX (excitation wavelength) of 365/±10, DM of 400 or longer and BA (fluorescence wavelength) of 470±20 was used based on the fluorescent property of the fluorescent substances.

Blood cells [4] = assay: Labeled amino acid incorporation, fluorescence microscopy image analysis (false-positive/negative rate); type: cell-based, human; conditions: hemolyzed, 30 min, 37° C.; for Negative rate (Blood cells) / Positive rate (Blood cells): 1 mM
Text: as §4
When performing the hemolyzing treatment, the blood cell fraction collected as described above was hemolyzed using ammonium chloride (STEMCELL Technologies) at room temperature according to the manufacture's manuals.
The number of the cells was counted for each cell line using a hemacytometer in accordance with the conventional method, and then 10^5 to 10^6 cells per sample (cell suspension) was aliquoted. The sample was centrifuged to remove the supernatant. Subsequently, H-Ala(2-Bacd)-OH (Watanabe Chemical Industries, Ltd.) was added thereto (at the final concentration given in Table 5 or 6), and the cells were suspended well. After the reaction, Dulbecco's PBS (−) was added to the mixture, and the resultant was centrifuged to remove the supernatant. The cells were resuspended with Dulbecco's PBS and centrifuged, and the supernatant was removed again. The steps of resuspending cells with Dulbecco's PBS (−), centrifuging and removing the supernatant were then repeated 2 to 3 times, thereby washing the cells thoroughly. The cells were resuspended with Dulbecco's PBS (−), the concentration thereof was adjusted, and then added dropwise to a 384-well plate. The plate was centrifuged to spin down the cells. The image was captured with a fluorescence microscope (Nikon Corp.) using B-2A filter set (Nikon Corp.). The B-2A set covers the same wavelengths as those in Example 2. The acquired images were analyzed using an image analysis software NIS-ELEMENTS (trade name, Nikon Corp.) to evaluate the fluorescence intensity of the cell.
With regard to the labeling substance, H-Lys(DMACA)-OH (Watanabe Chemical Industries, Ltd.) or H-Glu(EDANS)—OH (Watanabe Chemical Industries, Ltd.) was used instead of using H-Ala(2-Bacd)-OH in the staining of Example 3.
as §5

| Compound | Positive rate (Fibrosarcoma cell line) ([1]; hemolyzed) [%] | Positive rate (Fibrosarcoma cell line) ([1]; not hemolyzed) [%] | Negative rate (Blood cells (fresh blood)) (Blood cells [2]; hemolyzed) [%] | Positive rate (Blood cells (fresh blood)) (Blood cells [2]; hemolyzed) [%] | Negative rate (Blood cells (fresh blood)) (Blood cells [2]; not hemolyzed) [%] | Positive rate (Blood cells (fresh blood)) (Blood cells [2]; not hemolyzed) [%] | Positive rate (Gastric cancer cell line) [3] [%] | Negative rate (Blood cells) (Blood cells [4]) [%] | Positive rate (Blood cells) (Blood cells [4]) [%] | selectivity for a cancer cell in view of a negative rate (Blood cells [4]; gastric cancer cell line versus blood cells, Table 15) |
| --- | --- | --- | --- | --- | --- | --- | --- | --- | --- | --- |
| O=[N+]([O-])c1ccc(NCC2OC(O)C(O)C(O)[C@@H]2O)c2nonc12 (stereo partly drawn) [6-NBDG, 6-[N-(7-nitrobenz-2-oxa-1,3-diazol-4-yl)amino]-6-deoxy-D-glucose] | 78.7 | 71.1 | 99.1 | 0.9 | 99.1 | 0.9 | – | – | – | – |
| N[C@@H](CCC(=O)NCCNc1cccc2c(S(=O)(=O)O)cccc12)C(=O)O [H-Glu(EDANS)-OH] | – | – | – | – | – | – | 56.9 | 99.4 | 0.6 | high selectivity |
| CN(C)c1ccc2c(CC(=O)NCCCC[C@H](N)C(=O)O)cc(=O)oc2c1 [H-Lys(DMACA)-OH] | – | – | – | – | – | – | 86.1 | 82.3 | 17.7 | – |
